Laboratory results reported in patent US12552758B2, “Inhibitors of MLH1 and/or PMS2 for cancer treatment” (NeoPhore Limited, priority 2020, dated 2026).

Tests used:
[1] = biological target: recombinant N-terminal MLH1 (residues 15-340) (Homo sapiens (Human), UniProt P40692); assay: Fluorescence polarisation assay for MLH1 (protocol for all Examples except Examples 64, 76, 90 and 95); format: binding; details: FP probe displacement; 100 nM N-terminal MLH1, 5 nM probe compound, read after 15 minutes; all Examples except 64, 76, 90 and 95
Procedure: Fluorescence Polarisation Assay for MLH1 (Protocol for all Examples Except Examples 64, 76, 90 and 95)
(§1) Test compounds, as 10 mM DMSO stocks, were dispensed into a Black Fluotrac 200 384 well medium binding plate (Greiner Bio-One, item number 781076) using a Labcyte Echo acoustic liquid handler. For single point screening, test compounds were added to wells in columns 1-22 whilst DMSO was added to wells in columns 23 and 24 in order to normalise the plate. For potency determination, serial dilutions of test compounds were added to wells in columns 3-22 and DMSO volume was normalised across the plate.
20 μL assay buffer was added to all wells in columns 1 and 24 (column 24 only for single point screening) using a MultiDrop Combi (ThermoFisher). Plates were centrifuged for 1 minute at 250×g and were incubated at room temperature for 30 minutes prior to the addition of 20 μL of 2×(10 nM) of 5-((5-(4-((2-(2,4-dihydroxy-5-isopropylbenzoyl)isoindolin-5-yl)methyl)piperazin-1-yl)pentyl)carbamoyl)-2-(6-(dimethylamino)-3-(dimethyliminio)-3H-xanthen-9-yl)benzoate (referred to hereinafter as “probe compound”) in assay buffer (prepared from a 100 μM DMSO stock) with a MultiDrop Combi (ThermoFisher). The final concentration of N-terminal MLH1 was 100 nM and the final concentration of probe compound was 5 nM.
(§2) Compound plates were centrifuged for 1 minute at 250×g for 1 minute and were incubated at room temperature for 15 minutes before being read on a PheraStar FSX (fitted with 384-well aperture spoon and 540 590 590 FP optic module). The gain and focus were adjusted before each plate was read so that the polarisation of a no enzyme control (column 24) was equal to 35 mP. Data were normalised against the no inhibitor controls (column 23) and no enzyme controls (column 24).

[2] = biological target: recombinant N-terminal PMS2 (residues 1-365) (Homo sapiens (Human), UniProt P54278); assay: Fluorescence polarisation assay for PMS2; format: binding; details: FP probe displacement; 10 nM N-terminal PMS2, 5 nM probe compound, read after 1 hour
Procedure: Fluorescence Polarisation Assay for PMS2
as §1
20 μL assay buffer was added to all wells in columns 1 and 24 (column 24 only for single point screening) using a MultiDrop Combi (ThermoFisher). Plates were centrifuged for 1 minute at 250×g and were incubated at room temperature for 30 minutes prior to the addition of 20 μL of 2×([…]) of 5-((5-(4-((2-(2,4-dihydroxy-5-isopropylbenzoyl)isoindolin-5-yl)methyl)piperazin-1-yl)pentyl)carbamoyl)-2-(6-(dimethylamino)-3-(dimethyliminio)-3H-xanthen-9-yl)benzoate (referred to hereinafter as “probe compound”) in assay buffer (prepared from a 100 μM DMSO stock) with a MultiDrop Combi (ThermoFisher). The final concentration of N-terminal PMS2 was 10 nM and the final concentration of probe compound was 5 nM.
as §2, with “1 hour” for “15 minutes”

Chain of recombinant N-terminal PMS2 (residues 1-365) (P54278 1-365): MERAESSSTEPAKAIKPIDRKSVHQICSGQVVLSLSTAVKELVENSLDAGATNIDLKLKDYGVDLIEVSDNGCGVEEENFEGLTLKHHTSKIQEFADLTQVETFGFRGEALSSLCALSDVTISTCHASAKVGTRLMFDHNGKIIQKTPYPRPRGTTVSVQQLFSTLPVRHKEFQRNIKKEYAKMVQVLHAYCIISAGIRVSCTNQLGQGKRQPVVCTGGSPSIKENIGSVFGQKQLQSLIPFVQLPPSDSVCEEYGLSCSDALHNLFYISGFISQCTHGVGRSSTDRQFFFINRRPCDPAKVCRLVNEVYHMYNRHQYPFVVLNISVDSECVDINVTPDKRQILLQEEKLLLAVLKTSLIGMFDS
Chain of recombinant N-terminal MLH1 (residues 15-340) (P40692 15-340): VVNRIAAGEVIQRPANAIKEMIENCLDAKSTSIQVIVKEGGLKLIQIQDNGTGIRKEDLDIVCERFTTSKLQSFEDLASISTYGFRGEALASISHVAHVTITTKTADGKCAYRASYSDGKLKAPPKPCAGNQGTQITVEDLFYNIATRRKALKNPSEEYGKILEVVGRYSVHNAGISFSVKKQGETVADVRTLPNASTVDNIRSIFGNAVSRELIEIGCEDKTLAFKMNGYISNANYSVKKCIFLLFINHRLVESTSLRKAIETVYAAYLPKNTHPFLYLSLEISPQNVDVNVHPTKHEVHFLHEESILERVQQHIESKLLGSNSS

Structure (SMILES) | IC50 [1] | IC50 [2]
Cc1c(O)cc(O)c(C(=O)N2Cc3ccccc3C2CO)c1OCc1ccccc1 (centres unmarked) [Example 63, (2-(benzyloxy)-4,6-dihydroxy-3-methylphenyl)(1-(hydroxymethyl)isoindolin-2-yl)methanone] | > 10 µM | 1 to 10 µM
Cc1c(O)cc(O)c(C(=O)N2CCc3ccccc3C2CO)c1OCc1ccccc1 (centres unmarked) [Example 65, (2-(Benzyloxy)-4,6-dihydroxy-3-methylphenyl)(1-(hydroxymethyl)-3,4-dihydroisoquinolin-2(1H)-yl)methanone] | > 10 µM | > 10 µM
Cc1c(O)cc(O)c(C(=O)N2Cc3ccccc3C(CO)C2)c1OCc1ccccc1 (centres unmarked) [Example 66, (2-(Benzyloxy)-4,6-dihydroxy-3-methylphenyl)(4-(hydroxymethyl)-3,4-dihydroisoquinolin-2(1H)-yl)methanone] | > 10 µM | 1 to 10 µM
Cc1c(O)cc(O)c(C(=O)N2Cc3ccc(CN(C)C)cc3C2)c1OCc1ccccc1 [Example 68, (2-(Benzyloxy)-4,6-dihydroxy-3-methylphenyl)(5-((dimethylamino)methyl)isoindolin-2-yl)methanone] | > 10 µM | < 1 µM
Cc1c(O)cc(O)c(C(=O)N2Cc3ccc(CN4CCOCC4)cc3C2)c1OCc1ccccc1 [Example 69, (2-(Benzyloxy)-4,6-dihydroxy-3-methylphenyl)(5-(morpholinomethyl)isoindolin-2-yl)methanone] | > 10 µM | < 1 µM
Cc1c(O)cc(O)c(C(=O)N2CCc3ccccc32)c1OCc1ccccc1 [Example 70, (2-(Benzyloxy)-4,6-dihydroxy-3-methylphenyl)(indolin-1-yl)methanone] | > 10 µM | 1 to 10 µM
O=C(c1c(O)cc(O)cc1OCc1ccccc1)N1CCc2ccccc21 [Example 71, (2-(Benzyloxy)-4,6-dihydroxyphenyl)(indolin-1-yl)methanone] | 1 to 10 µM | 1 to 10 µM
Cc1c(O)cc(O)c(C(=O)N2CCCc3ccccc32)c1OCc1ccccc1 [Example 72, (2-(Benzyloxy)-4,6-dihydroxy-3-methylphenyl)(3,4-dihydroquinolin-1(2H)-yl)methanone] | > 10 µM | 1 to 10 µM
O=C(c1c(O)cc(O)cc1OCc1ccccc1)N1CCCc2ccccc21 [Example 73, (2-(Benzyloxy)-4,6-dihydroxyphenyl)(3,4-dihydroquinolin-1(2H)-yl)methanone] | 1 to 10 µM | 1 to 10 µM
Cc1c(O)cc(O)c(C(=O)N2Cc3ccncc3C2)c1OCc1ccccc1 [Example 74, (2-(Benzyloxy)-4,6-dihydroxy-3-methylphenyl)(1,3-dihydro-2H-pyrrolo[3,4-c]pyridin-2-yl)methanone] | > 10 µM | < 1 µM
Cc1c(O)cc(O)c(C(=O)N2Cc3cccc(CN4CCN(C)CC4)c3C2)c1OCc1ccccc1 [Example 75, (2-(Benzyloxy)-4,6-dihydroxy-3-methylphenyl)(4-((4-methylpiperazin-1-yl)methyl)isoindolin-2-yl)methanone] | > 10 µM | < 1 µM
Cc1c(O)cc(O)c(C(=O)N2CCc3ccc(C(=O)N(C)C)cc3C2)c1OCc1ccccc1 [Example 77, 2-(2-(Benzyloxy)-4,6-dihydroxy-3-methylbenzoyl)-N,N-dimethyl-1,2,3,4-tetrahydroisoquinoline-7-carboxamide] | > 10 µM | < 1 µM
Cc1c(O)cc(O)c(C(=O)N2CCc3cc(C(=O)N(C)C)ccc3C2)c1OCc1ccccc1 [Example 78, 2-(2-(benzyloxy)-4,6-dihydroxy-3-methylbenzoyl)-N,N-dimethyl-1,2,3,4-tetrahydroisoquinoline-6-carboxamide] | > 10 µM | < 1 µM
Cc1c(O)cc(O)c(C(=O)N2Cc3cccc(NC4CCOC4)c3C2)c1OCc1ccccc1 (centres unmarked) [Example 79, (2-(Benzyloxy)-4,6-dihydroxy-3-methylphenyl)(4-((tetrahydrofuran-3-yl)amino)isoindolin-2-yl)methanone] | > 10 µM | < 1 µM
Cc1c(O)cc(O)c(C(=O)N2Cc3cccc(NC4COC4)c3C2)c1OCc1ccccc1 [Example 80, (2-(Benzyloxy)-4,6-dihydroxy-3-methylphenyl)(4-(oxetan-3-ylamino)isoindolin-2-yl)methanone] | 1 to 10 µM | < 1 µM
Cc1c(O)cc(O)c(C(=O)N2Cc3cccc(N4CCCC(O)C4)c3C2)c1OCc1ccccc1 (centres unmarked) [Example 81, (2-(Benzyloxy)-4,6-dihydroxy-3-methylphenyl)(4-(3-hydroxypiperidin-1-yl)isoindolin-2-yl)methanone] | > 10 µM | < 1 µM
Cc1c(O)cc(O)c(C(=O)N2Cc3cccc(C#N)c3C2)c1OCc1ccccc1 [Example 82, 2-(2-(benzyloxy)-4,6-dihydroxy-3-methylbenzoyl)isoindoline-4-carbonitrile] | > 10 µM | < 1 µM
Cc1c(O)cc(O)c(C(=O)N2Cc3ccc(C(=O)N(C)C)cc3C2)c1OCc1ccccc1 [Example 83, 2-(2-(Benzyloxy)-4,6-dihydroxy-3-methylbenzoyl)-N,N-dimethylisoindoline-5-carboxamide] | > 10 µM | < 1 µM
CNC(=O)c1ccc2c(c1)CN(C(=O)c1c(O)cc(O)c(C)c1OCc1ccccc1)C2 [Example 84, 2-(2-(Benzyloxy)-4,6-dihydroxy-3-methylbenzoyl)-N-methylisoindoline-5-carboxamide] | > 10 µM | < 1 µM
Cc1c(O)cc(O)c(C(=O)N2Cc3cccc(C(=O)N(C)C)c3C2)c1OCc1ccccc1 [Example 85, 2-(2-(Benzyloxy)-4,6-dihydroxy-3-methylbenzoyl)-N,N-dimethylisoindoline-4-carboxamide] | > 10 µM | < 1 µM
CNC(=O)c1cccc2c1CN(C(=O)c1c(O)cc(O)c(C)c1OCc1ccccc1)C2 [Example 86, 2-(2-(benzyloxy)-4,6-dihydroxy-3-methylbenzoyl)-N-methylisoindoline-4-carboxamide] | > 10 µM | 1 to 10 µM
CC(=O)Nc1cccc2c1CN(C(=O)c1c(O)cc(O)c(C)c1OCc1ccccc1)C2 [Example 87, N-(2-(2-(benzyloxy)-4,6-dihydroxy-3-methylbenzoyl)isoindolin-4-yl)acetamide] | > 10 µM | < 1 µM
Cc1c(O)cc(O)c(C(=O)N2Cc3cccc(OC4CCOC4)c3C2)c1OCc1ccccc1 (centres unmarked) [Example 88] | > 10 µM | < 1 µM
Cc1c(O)cc(O)c(C(=O)N2Cc3cccc(OCC4CNC4)c3C2)c1OCc1ccccc1 [Example 89, (4-(Azetidin-3-yl methoxy)isoindolin-2-yl) (2-(benzyloxy)-4,6-dihydroxy-3-methylphenyl) methanone] | > 10 µM | < 1 µM
Cc1c(O)cc(O)c(C(=O)N2Cc3cccc(N4CC(C#N)C4)c3C2)c1OCc1ccccc1 [Example 91, 1-(2-(2-(Benzyloxy)-4,6-dihydroxy-3-methylbenzoyl)isoindolin-4-yl)azetidine-3-carbonitrile] | > 10 µM | < 1 µM
COc1c(C)c(O)cc(O)c1C(=O)N1Cc2ccc(CN3CCN(C)CC3)cc2C1 [Example 92, (4,6-Dihydroxy-2-methoxy-3-methylphenyl)(5-((4-methylpiperazin-1-yl)methyl)isoindolin-2-yl)methanone] | > 10 µM | < 1 µM
CCOc1c(C)c(O)cc(O)c1C(=O)N1Cc2ccc(CN3CCN(C)CC3)cc2C1 [Example 93, (2-Ethoxy-4,6-dihydroxy-3-methylphenyl)(5-((4-methylpiperazin-1-yl)methyl)isoindolin-2-yl)methanone] | > 10 µM | < 1 µM
Cc1c(O)cc(O)c(C(=O)N2Cc3ccc(CN4CCN(C)CC4)cc3C2)c1OCC1CCCCC1 [Example 94, (2-(Cyclohexylmethoxy)-4,6-dihydroxy-3-methylphenyl)(5-((4-methylpiperazin-1-yl)methyl)isoindolin-2-yl)methanone] | > 10 µM | < 1 µM
